Laboratory results taken from ChEMBL document CHEMBL2046411, “Virtual Screening and X-ray Crystallography for Human Kallikrein 6 Inhibitors with an Amidinothiophene P1 Group” (ACS Med Chem Lett, 2012).

Target: Kallikrein-6 (Homo sapiens, UniProt Q92876)
Assay: Inhibition of N-terminus His6-tagged human kallikrein 6 expressed in baculovirus infected insect sf9 cells using Boc-Phe-Ser-Arg-AMC as substrate by fluorescence analysis

- IC50: 1.5 µM
Compound: COc1ccc2ccc(S(=O)(=O)N(Cc3ccccc3)[C@H]3CCN(Cc4ccc(C(=N)N)s4)C3=O)cc2c1
